Laboratory results published in PubChem BioAssay (NCI).
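Following 48 hours of exposure in 96-well plates, responses at five concentrations were used to interpolate endpoints linearly. TGI denotes the concentration required for complete inhibition of growth.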

Key:
Test in all cases: growth of human tumour cells (NCI), 48 h
UACC-62 melanoma = tested on: UACC-62 melanoma
MDA-MB-435 = tested on: MDA-MB-435
MDA-MB-231 breast = tested on: MDA-MB-231 breast
SK-OV-3 ovarian = tested on: SK-OV-3 ovarian
LOX IMVI melanoma = tested on: LOX IMVI melanoma
SNB-75 CNS = tested on: SNB-75 CNS
SN12C renal = tested on: SN12C renal
SF-268 CNS = tested on: SF-268 CNS
SW-620 colon = tested on: SW-620 colon
UO-31 renal = tested on: UO-31 renal

## C/C(CC1C2CCCC1C2)=N\NC(N)=O (stereo not given)
UACC-62 melanoma
  TGI: > 100 µM
MDA-MB-435
  TGI: > 100 µM
MDA-MB-231 breast
  TGI: > 100 µM
SK-OV-3 ovarian
  TGI: > 100 µM
LOX IMVI melanoma
  TGI: > 100 µM
SNB-75 CNS
  TGI: > 100 µM
SN12C renal
  TGI: > 100 µM
SF-268 CNS
  TGI: > 100 µM
SW-620 colon
  TGI: > 100 µM
UO-31 renal
  TGI: > 100 µM

## CS(=O)(=O)OCCn1c(=O)n(CCOS(C)(=O)=O)c(=O)n(CCOS(C)(=O)=O)c1=O
UACC-62 melanoma
  TGI: > 100 µM
MDA-MB-435
  TGI: > 100 µM
MDA-MB-231 breast
  TGI: > 100 µM
SK-OV-3 ovarian
  TGI: > 100 µM
LOX IMVI melanoma
  TGI: > 100 µM
SNB-75 CNS
  TGI: > 100 µM
SN12C renal
  TGI: > 100 µM
SF-268 CNS
  TGI: > 100 µM
SW-620 colon
  TGI: > 100 µM
UO-31 renal
  TGI: > 100 µM

## O=c1cc(N=P(c2ccccc2)(c2ccccc2)c2ccccc2)n(-c2ccccc2)c(=O)n1-c1ccccc1
UACC-62 melanoma
  TGI: 39.6 µM
MDA-MB-435
  TGI: 57.2 µM
MDA-MB-231 breast
  TGI: 78.9 µM
SK-OV-3 ovarian
  TGI: 76.1 µM
LOX IMVI melanoma
  TGI: 49.5 µM
SNB-75 CNS
  TGI: 39.9 µM
SN12C renal
  TGI: 75.3 µM
SF-268 CNS
  TGI: > 100 µM
SW-620 colon
  TGI: > 100 µM
UO-31 renal
  TGI: 34.6 µM

## CC(C)/C(Cl)=N\OC(=O)Nc1ccc(C#N)cc1
UACC-62 melanoma
  TGI: 31 µM
MDA-MB-435
  TGI: 20.8 µM
MDA-MB-231 breast
  TGI: 28.1 µM
SK-OV-3 ovarian
  TGI: 31.1 µM
LOX IMVI melanoma
  TGI: 13.2 µM
SNB-75 CNS
  TGI: 31.6 µM
SN12C renal
  TGI: 26.6 µM
SF-268 CNS
  TGI: 36.7 µM
SW-620 colon
  TGI: 3.36 µM
UO-31 renal
  TGI: 21.2 µM
